This note sets out measurements from ChEMBL document CHEMBL5518232, “Discovery of New Tricyclic Oxime Sampangine Derivatives as Potent Antifungal Agents for the Treatment of Cryptococcosis and Candidiasis” (J Med Chem, 2024).

≈ marks a conversion by molar mass, not a printed value.

A word on the MIC80: it is the lowest concentration that inhibits either 80% of growth or 80% of the strains tested, depending on the study.

One data set has as its system Candida tropicalis. Kind of data set: Antifungal activity against Candida tropicalis 10186 assessed as reduction in fungal growth incubated for 48 hrs by liquid based microdilution method. The format is functional. In general terms: Broth dilution looks for growth in wells or tubes with falling amounts of substance.
For a further data set, the system named is Nakaseomyces glabratus. Kind of data set: Antifungal activity against Candida glabrata 9073 assessed as reduction in fungal growth incubated for 48 hrs by liquid based microdilution method. The format is functional.
Data set [1] relates to Candida albicans. Kind of data set: Synergistic antifungal activity against Candida albicans 0304103 assessed as fractional inhibitory concentration index by measuring ratio of MIC80 for compound and synergetic / MIC80 for compound alone + MIC80 for fluconazole synergetic / MIC80 for fluconazole alone. The format is functional.
Data set [2] can be described thus: Antifungal activity against Cryptococcus gattii VGI ATCC 14116 assessed as reduction in fungal growth incubated for 72 hrs by liquid based microdilution method. Type of data set: functional.
In data set [3] the test system is Candida albicans. Kind of data set: Synergistic antifungal activity against Candida albicans 0304103 assessed as inhibition of fungal growth incubated for 48 hrs in presence of fluconazole by checkerboard microdilution assay. Type of data set: functional.
In data set [4] the test system is Candida albicans. Kind of data set: Antifungal activity against Candida albicans 0304103 assessed as reduction in fungal growth incubated for 48 hrs by liquid based microdilution method. Type of data set: functional.
In data set [5] the test system is Cryptococcus neoformans. Kind of data set: Antifungal activity against Cryptococcus neoformans ATCC 34877 assessed as reduction in fungal growth incubated for 72 hrs by liquid based microdilution method. Type of data set: functional.
Data set [6] concerns Candida albicans. Kind of data set: Antifungal activity against Candida albicans SC5314 assessed as reduction in fungal growth incubated for 48 hrs by liquid based microdilution method. Type of data set: functional.
Data set [7] concerns Cryptococcus neoformans. Kind of data set: Antifungal activity against Cryptococcus neoformans H99 assessed as reduction in fungal growth incubated for 72 hrs by liquid based microdilution method. The format is functional.
Data set [8] relates to Candida albicans. Kind of data set: Antifungal activity against Candida albicans assessed as reduction in fungal growth incubated for 24 hrs by broth microdilution method. The format is functional.
The subject of data set [9] is Cryptococcus neoformans. Kind of data set: Antifungal activity against Cryptococcus neoformans assessed as reduction in fungal growth incubated for 24 hrs by broth microdilution method. Type of data set: functional.
A short description of data set [10]: Effective permeability of the compound across blood brain barrier incubated for 12 hrs by PAMPA assay. The settings on record: read-out: Peff. The format is ADME. Background: The PAMPA barrier holds no transporters, so it reflects passive diffusion.
The subject of data set [11] is Candida albicans. Kind of data set: Antagonistic antifungal activity against Candida albicans 0304103 assessed as fractional inhibitory concentration index by measuring ratio of MIC80 for compound and synergetic / MIC80 for compound alone + MIC80 for fluconazole synergetic / MIC80 for fluconazole alone. The format is functional.

For the compound `Cc1noc2c1C(=O)c1ccccc1/C2=N/O`, the MIC80 in the data set with Candida tropicalis is above 64 µg/mL; in the data set with Nakaseomyces glabratus, above 64 µg/mL; in [2] it was 16 µg/mL (≈ 70.1 µM); in the data set on Candida albicans [3] it was 2 µg/mL; in the data set with Candida albicans [4] it was above 64 µg/mL; in the data set on Cryptococcus neoformans [5] it was 8 µg/mL (≈ 35.1 µM). Moreover, the results for the MIC80 in the data set with Candida albicans [6] and in the data set with Cryptococcus neoformans [7] were above 64 µg/mL and 8 µg/mL (≈ 35.1 µM), respectively. Also, the “fractional inhibitory concentration index (FICI)” value in the data set on Candida albicans [1] is recorded as 0.063.
Consider `CCc1noc2c1C(=O)c1sccc1/C2=N/OC`, for which the MIC80 in the data set on Candida tropicalis is above 64 µg/mL; with Nakaseomyces glabratus it was above 64 µg/mL; in data set [2], 4 µg/mL (≈ 15.3 µM); with Candida albicans [3] it was 2 µg/mL; with Candida albicans [4], above 64 µg/mL; with Cryptococcus neoformans [5], 0.13 µg/mL (≈ 0.496 µM). Further, the figures for the MIC80 in the data set on Candida albicans [6] and in the data set with Cryptococcus neoformans [7] were above 64 µg/mL and 0.13 µg/mL (≈ 0.496 µM), respectively. In the data set on Candida albicans [1], the “fractional inhibitory concentration index (FICI)” value turned out to be 0.047.
Consider `CCO/N=C1/c2ccsc2C(=O)c2c(C)noc21`, for which the MIC80 in the data set with Candida tropicalis was above 64 µg/mL; in the data set with Nakaseomyces glabratus, above 64 µg/mL; in data set [2], 4 µg/mL (≈ 15.3 µM); with Candida albicans [3] it was 2 µg/mL; in the data set on Candida albicans [4], above 64 µg/mL; in the data set with Cryptococcus neoformans [5], 2 µg/mL (≈ 7.63 µM). Moreover, the values for the MIC80 in the data set with Candida albicans [6] and with Cryptococcus neoformans [7] were above 64 µg/mL and 0.13 µg/mL (≈ 0.496 µM), respectively. The “fractional inhibitory concentration index (FICI)” value with Candida albicans [1] was 0.047.
With `Cc1noc2c1C(=O)c1sccc1/C2=N/OC(C)C`, the MIC80 is above 64 µg/mL in the data set with Candida tropicalis; above 64 µg/mL with Nakaseomyces glabratus; 2 µg/mL in the data set with Candida albicans [3]; above 64 µg/mL in the data set on Candida albicans [4]; above 64 µg/mL with Candida albicans [6]; above 64 µg/mL in the data set on Cryptococcus neoformans [7]. The “fractional inhibitory concentration index (FICI)” value with Candida albicans [1] is given as 0.063.
Take `CO/N=C1/c2ccccc2C(=O)c2c(C)noc21`: the MIC80 is above 64 µg/mL in the data set on Candida tropicalis; above 64 µg/mL with Nakaseomyces glabratus; 2 µg/mL in the data set with Candida albicans [3]; above 64 µg/mL with Candida albicans [4]; above 64 µg/mL in the data set with Candida albicans [6]; 32 µg/mL (≈ 132 µM) in the data set with Cryptococcus neoformans [7]. Further, the “fractional inhibitory concentration index (FICI)” value with Candida albicans [1] is recorded as 0.047.
With `CCCc1noc2c1C(=O)c1sccc1/C2=N/OC`, the MIC80 was above 64 µg/mL in the data set with Candida tropicalis; above 64 µg/mL with Nakaseomyces glabratus; 16 µg/mL (≈ 57.9 µM) in data set [2]; 8 µg/mL in the data set with Candida albicans [3]; above 64 µg/mL with Candida albicans [4]; 2 µg/mL (≈ 7.24 µM) in the data set with Cryptococcus neoformans [5]. The MIC80 in the data set with Candida albicans [6] is above 64 µg/mL; with Cryptococcus neoformans [7] it was 4 µg/mL (≈ 14.5 µM). For the same compound, in the data set on Candida albicans [1], the “fractional inhibitory concentration index (FICI)” value is on record as 0.25.
`CO/N=C1/c2ccsc2C(=O)c2ccsc21`: the MIC80 was above 64 µg/mL in the data set with Candida tropicalis; above 64 µg/mL in the data set with Nakaseomyces glabratus; 2 µg/mL in the data set with Candida albicans [3]; above 64 µg/mL in the data set with Candida albicans [4]; above 64 µg/mL in the data set on Candida albicans [6]; 64 µg/mL (≈ 257 µM) in the data set on Cryptococcus neoformans [7]. In the data set on Candida albicans [1], the “fractional inhibitory concentration index (FICI)” value is on record as 0.047.
Consider `O=C1c2ccccc2-c2nccc3ccnc1c23` [SAMPANGINE], for which the MIC80 in the data set on Candida albicans [8] was found to be 0.5 µg/mL (≈ 2.15 µM); in the data set on Cryptococcus neoformans [9], 2 µg/mL (≈ 8.61 µM).
As to `Cc1noc2c1C(=O)c1sccc1C2=O`, the MIC80 with Candida tropicalis came to 2 µg/mL (≈ 9.12 µM); with Nakaseomyces glabratus, 1 µg/mL (≈ 4.56 µM); in the data set with Candida albicans [4] it was 0.5 µg/mL (≈ 2.28 µM); in the data set on Candida albicans [6] it was 0.13 µg/mL (≈ 0.593 µM); in the data set with Cryptococcus neoformans [7], 0.031 µg/mL (≈ 0.141 µM). For the same compound, in data set [10], the Papp at 12 h was determined as 7.69 ×10⁻⁶ cm/s.
In the case of `CO/N=C1/c2ccsc2/C(=N\OC)c2ccsc21`, the MIC80 in the data set on Candida tropicalis was above 64 µg/mL; with Nakaseomyces glabratus it was above 64 µg/mL; with Candida albicans [3], above 64 µg/mL; with Candida albicans [4], above 64 µg/mL; in the data set on Candida albicans [6], above 64 µg/mL; with Cryptococcus neoformans [7], 32 µg/mL (≈ 115 µM). Moreover, the “fractional inhibitory concentration index (FICI)” value with Candida albicans [11] is given as above 2.
Consider `CCO/N=C1/c2ccccc2C(=O)c2c(C)noc21`, for which the MIC80 in the data set on Candida tropicalis is above 64 µg/mL; with Nakaseomyces glabratus it was above 64 µg/mL; in the data set with Candida albicans [3] it was 2 µg/mL; in the data set with Candida albicans [4] it was above 64 µg/mL; in the data set with Candida albicans [6], above 64 µg/mL; in the data set on Cryptococcus neoformans [7] it was above 64 µg/mL. The “fractional inhibitory concentration index (FICI)” value in the data set with Candida albicans [1] amounted to 0.039.
Take `Cc1noc2c1C(=O)c1sccc1/C2=N/O`: the MIC80 is above 64 µg/mL with Candida tropicalis; above 64 µg/mL in the data set on Nakaseomyces glabratus; 4 µg/mL (≈ 17.1 µM) in [2]; 2 µg/mL in the data set with Candida albicans [3]; above 64 µg/mL with Candida albicans [4]; 8 µg/mL (≈ 34.2 µM) in the data set on Cryptococcus neoformans [5]. The MIC80 is above 64 µg/mL in the data set with Candida albicans [6] and 0.25 µg/mL (≈ 1.07 µM) in the data set on Cryptococcus neoformans [7]. In addition, the “fractional inhibitory concentration index (FICI)” value with Candida albicans [1] stood at 0.094.
In the case of `CO/N=C1/c2ccoc2C(=O)c2c(C)noc21`, the MIC80 with Candida tropicalis was above 64 µg/mL; in the data set with Nakaseomyces glabratus it was above 64 µg/mL; in [2], 8 µg/mL (≈ 34.5 µM); in the data set with Candida albicans [3] it was 4 µg/mL; in the data set on Candida albicans [4] it was above 64 µg/mL; with Cryptococcus neoformans [5] it was 1 µg/mL (≈ 4.31 µM). The MIC80 is above 64 µg/mL with Candida albicans [6] and 2 µg/mL (≈ 8.61 µM) with Cryptococcus neoformans [7]. Moreover, the “fractional inhibitory concentration index (FICI)” value in the data set on Candida albicans [1] is on record as 0.094.
As to `Cc1ccnc2c1C(=O)c1sc([N+](=O)[O-])cc1C2=O`, the MIC80 was 0.5 µg/mL (≈ 1.82 µM) in the data set on Candida albicans [8] and 0.25 µg/mL (≈ 0.912 µM) in the data set on Cryptococcus neoformans [9].
